In brackets after ≈: the same amount, converted by molar mass.
Legend:
[1] = Lipophilicity, logD of compound at pH 7.4; format: physicochemical; conditions: buffer
[2] = Solubility of compound at pH 7.4; format: physicochemical; conditions: buffer

| SMILES | logD [1] | solubility [2] [µM] |
| --- | --- | --- |
| Cc1nc(Nc2cccc(N3CCN(C)C3=O)n2)sc1-c1cc2c(c(S(C)(=O)=O)c1)C(=O)N([C@@H](C)C1CC1)C2 | 3.4 | < 0.045 |
| CC(=O)N1CCc2cc(-c3cccc4c3CCCC4)cc(N3CCCCC3=O)c21 | 3.8 | 259 (≈ 101 µg/mL) |
| N#Cc1cccc2ncn(CC(=O)NCc3ccc(C(F)(F)F)nc3N3CCCC3=O)c12 | 1.8 | > 2400 |
| O=C(C1CC1c1ccc(N2CCCC2=O)cc1)N1CCN(C2CCC2)CC1 (stereo unspecified) | 2 | > 2680 |
| O=C1CCCCN1c1cnc(NCc2c(F)ccc3c2CCO3)c2cn[nH]c(=O)c12 | 1.9 | 18 (≈ 7.37 µg/mL) |
| COc1ccc(N2CCN(C)CC2)c(CN2CCCN(c3ccc(N4CCOCC4)cc3)C2=O)c1 | 1.3 | 404 (≈ 194 µg/mL) |
| Cc1nc(Nc2cccc(N3CCCCC3=O)n2)sc1-c1cc2c(c(S(=O)(=O)NC3COC3)c1)C(=O)N([C@@H](C)C1CC1)C2 | 3.6 | 1.8 (≈ 1.12 µg/mL) |
| CN1CCCN(c2cnc(NCc3c(F)ccc4c3CCO4)n3cnnc23)C1=O | 1.2 | 153 (≈ 60.8 µg/mL) |
| O=C([C@@H]1C[C@H]1c1cccc(N2CCCCC2=O)c1)N1CCN(C2CCC2)CC1 | 1.6 | > 3000 |
| O=C1CCCCN1c1cccc(C(=O)N(c2ncccc2Cl)[C@@H]2CCCNC2)c1 | -0.9 | > 973 |
| COCC(=O)N1CCC(COc2ccc(N3CCCCC3=O)cc2)C1 (stereo unspecified) | -0.1 | > 3970 |
| Cc1nc(Nc2cccc(N3CCOC3=O)n2)sc1-c1cc2c(c(S(=O)(=O)NC3COC3)c1)C(=O)N([C@@H](C)C1CC1)C2 | > 4 | 0.021 (≈ 0.0128 µg/mL) |
| O=C1CCCN1c1cccc(C(=O)N(c2ncccc2Cl)[C@@H]2CCCNC2)c1 | -0.5 | 67 (≈ 26.7 µg/mL) |
| COc1ccc(N2CCN(C)CC2)c(CN2CCN(c3ccc(N4CCOCC4)cc3)C2=O)c1 | 1.8 | 456 (≈ 212 µg/mL) |
| CS(=O)(=O)c1ccc(CNC(=O)C2CCCN(c3cccc(C(F)(F)F)c3)C2=O)cc1 (stereo unspecified) | 1.5 | 94 (≈ 42.7 µg/mL) |
| CC(=O)N1CCc2cc(-c3cccc4c3CCCC4)cc(N3CCCC3=O)c21 | 3.5 | 271 (≈ 101 µg/mL) |
| Cc1nc(Nc2cccc(N3CCCCC3=O)n2)sc1-c1cc2c(c(S(=O)(=O)NC3COC3)c1)C(=O)N([C@@H](C)C(F)(F)F)C2 | 3.8 | 3 (≈ 1.95 µg/mL) |
| CN1CCN(c2ccc(F)cc2CN2CCN(c3ccc(N4CCOCC4)cc3)C2=O)CC1 | 2.1 | 189 (≈ 85.7 µg/mL) |
| CN1CCN(c2ccc(F)cc2CN2CCCN(c3ccc(N4CCOCC4)cc3)C2=O)CC1 | 1.6 | 387 (≈ 181 µg/mL) |
| Cc1nc(Nc2cccc(N3CCCN(C)C3=O)n2)sc1-c1cc2c(c(S(C)(=O)=O)c1)C(=O)N([C@@H](C)C1CC1)C2 | 3.5 | < 0.14 |
| N#Cc1cccc2ncn(CC(=O)NCc3ccc(C(F)(F)F)nc3N3CCCCC3=O)c12 | 1.8 | > 200 |
| Cc1nc(Nc2cccc(N3CCCC3=O)n2)sc1-c1cc2c(c(S(C)(=O)=O)c1)C(=O)N([C@@H](C)C1CC1)C2 [AZD-8154] | 4.4 | 0.054 (≈ 0.0298 µg/mL) |

Results, then the compound that gave them:

| logD [1] | solubility [2] [µM] | SMILES |
| --- | --- | --- |
| 1.8 |  | O=C1CCCN1c1cnc(NCc2c(F)ccc3c2CCO3)c2cn[nH]c(=O)c12 |
| 1.3 |  | O=C1CCCN1c1cnc(NCc2c(F)ccc3c2CCO3)n2cnnc12 |
| 3.9 | 6.3 (≈ 3.56 µg/mL) | Cc1nc(Nc2cccc(N3CCCCC3=O)n2)sc1-c1cc2c(c(S(C)(=O)=O)c1)C(=O)N([C@@H](C)C1CC1)C2 |
| 1.4 | 641 (≈ 246 µg/mL) | CN1CCN(c2cnc(NCc3c(F)ccc4c3CCO4)n3cnnc23)C1=O |
| 1.5 | 94 (≈ 42.9 µg/mL) | C[C@]1(CS(=O)(=O)N2CC=C(C#Cc3cccc(N4CCCC4=O)c3)CC2)NC(=O)NC1=O |
| 1.3 | 351 (≈ 134 µg/mL) | O=C1CCCCN1c1cnc(NCc2c(F)ccc3c2CCO3)n2cnnc12 |
| 0.2 | 271 (≈ 90.1 µg/mL) | COCC(=O)N1CCC(COc2ccc(N3CCCC3=O)cc2)C1 (stereo unspecified) |
| 2 | > 4140 | O=C([C@@H]1C[C@H]1c1cccc(N2CCCC2=O)c1)N1CCN(C2CCC2)CC1 |
| > 4 | 0.081 (≈ 0.0516 µg/mL) | Cc1nc(Nc2cccc(N3CCCC3=O)n2)sc1-c1cc2c(c(S(=O)(=O)NC3COC3)c1)C(=O)N([C@@H](C)C(F)(F)F)C2 |
| 1.7 | 2190 (≈ 837 µg/mL) | O=C([C@H]1C[C@@H]1c1cccc(N2CCCCC2=O)c1)N1CCN(C2CCC2)CC1 |
| 1 | 89 (≈ 41.9 µg/mL) | C[C@]1(CS(=O)(=O)N2CC=C(C#Cc3cccc(N4CCCCC4=O)c3)CC2)NC(=O)NC1=O |
| 2.1 | 15 (≈ 6.61 µg/mL) | CS(=O)(=O)c1ccc(CNC(=O)C2CCN(c3cccc(C(F)(F)F)c3)C2=O)cc1 (stereo unspecified) |

From ChEMBL document CHEMBL5126562, “Surprising lipophilicity observations identify unexpected conformational effects” (Bioorg Med Chem Lett, 2022)
